Reference: paper PMC10145973, “Genomic Insights into Bacterial Resistance to Proline-Rich Antimicrobial Peptide Bac7” (Membranes, 2023)
Values after ≈ are worked out from the molar mass of the structure shown. Where a SMILES comes first, the peptide text is derived from it. Bridges are numbered along the chain shown (N, C = ends).

Assays:
[1] = test system: E. coli MDR 1057 B2; conditions: Table 2; broth microdilution in MHB (medium ±0.9% NaCl not given), 0.1% BSA, 24 h, 37 °C; median of at least three independent experiments in triplicate
[2] = test system: E. coli MDR 1057 WT; conditions: Table 2; broth microdilution in MHB (medium ±0.9% NaCl not given), 10^6 CFU/mL suspension, agents diluted in 0.1% BSA, 24 h, 37 °C, visible turbidity; median of at least three independent experiments in triplicate
[3] = test system: E. coli MDR 1057 B3; conditions: Table 2; broth microdilution in MHB (medium ±0.9% NaCl not given), 0.1% BSA, 24 h, 37 °C; median of at least three independent experiments in triplicate
[4] = test system: E. coli MDR 1057 P1; conditions: Table 2; broth microdilution in MHB (medium ±0.9% NaCl not given), 0.1% BSA, 24 h, 37 °C; median of at least three independent experiments in triplicate
[5] = test system: E. coli MDR 1057 B3; assay: microbe, parasite or virus in culture; conditions: Escherichia coli, MDR1057B3, 24 h, read-out: Minimum Inhibitory Concentration, B3
[6] = test system: E. coli MDR 1057 B2; assay: microbe, parasite or virus in culture; conditions: Escherichia coli, MDR1057B2, 24 h, read-out: Minimum Inhibitory Concentration, B2
[7] = test system: E. coli MDR 1057 P1; assay: microbe, parasite or virus in culture; conditions: Escherichia coli, MDR1057P1, 24 h, read-out: Minimum Inhibitory Concentration, P1
[8] = test system: E. coli MDR 1057 WT; assay: microbe, parasite or virus in culture; conditions: Escherichia coli, MDR1057WT, 24 h, read-out: Minimum Inhibitory Concentration, WT

Compound | Minimum Inhibitory Concentration, B2 [1] | Minimum Inhibitory Concentration, WT [2] | Minimum Inhibitory Concentration, B3 [3] | Minimum Inhibitory Concentration, P1 [4] | MIC [5] | MIC [6] | MIC [7] | MIC [8]
CC(C)[C@@H]1NC(=O)[C@H](Cc2ccc(O)cc2)NC(=O)[C@H](Cc2c[nH]c3ccccc23)NC(=O)[C@@H](NC(=O)[C@H](Cc2ccccc2)NC(=O)CN)CSSC[C@@H](C(=O)N[C@@H](CC(N)=O)C(=O)O)NC(=O)[C@H](CCCNC(=N)N)NC(=O)[C@H](CCCNC(=N)N)NC(=O)[C@H](Cc2ccc(O)cc2)NC(=O)[C@@H]2CSSC[C@H](NC1=O)C(=O)N[C@@H](C)C(=O)N[C@@H](CCCNC(=N)N)C(=O)N[C@@H](CCCNC(=N)N)C(=O)N[C@@H](CC(N)=O)C(=O)NCC(=O)N[C@@H](C)C(=O)N[C@@H](CCCNC(=N)N)C(=O)N[C@@H](C(C)C)C(=O)N2 [AA139] (H-GFCWYVCARRNGARVCYRRCN-OH; disulfide 3-20, 7-16 (inferred)) | 0.25 µM | 0.25 µM | 1 µM | 0.5 µM | – | – | – | –
CC1(C)S[C@@H]2[C@H](NC(=O)[C@H](N)c3ccccc3)C(=O)N2[C@H]1C(=O)O [Ampicillin] | – | – | – | – | 256 µM (≈ 89.4 µg/mL) | 256 µM (≈ 89.4 µg/mL) | 256 µM (≈ 89.4 µg/mL) | 256 µM (≈ 89.4 µg/mL)
CO/N=C(\C(=O)N[C@@H]1C(=O)N2C(C(=O)O)=C(CSc3nc(=O)c(=O)[nH]n3C)CS[C@H]12)c1csc(N)n1 [Ceftriaxone] | – | – | – | – | 128 µM (≈ 71 µg/mL) | 128 µM (≈ 71 µg/mL) | 128 µM (≈ 71 µg/mL) | 128 µM (≈ 71 µg/mL)
CC[C@H](C)[C@H](NC(=O)[C@@H]1CCCN1C(=O)CNC(=O)[C@@H](NC(=O)[C@H](Cc1ccccc1)NC(=O)[C@@H]1CCCN1C(=O)CNC(=O)[C@@H](NC(=O)[C@H](CCCCN)NC(=O)[C@H](Cc1c[nH]cn1)NC(=O)[C@H](Cc1c[nH]c2ccccc12)NC(=O)[C@H](CC(C)C)NC(=O)[C@H](CCCNC(=N)N)NC(=O)[C@H](CCCCN)NC(=O)[C@H](CC(C)C)NC(=O)[C@H](CCCCN)NC(=O)[C@H](CCCCN)NC(=O)[C@H](CCCNC(=N)N)NC(=O)[C@H](Cc1ccccc1)NC(=O)[C@H](CCCNC(=N)N)NC(=O)[C@H](CCCCN)NC(=O)[C@H](Cc1ccccc1)NC(=O)[C@H](CCCNC(=N)N)NC(=O)CN)C(C)C)C(C)C)C(=O)N[C@@H](CC(C)C)C(=O)N[C@@H](Cc1c[nH]cn1)C(=O)N[C@@H](Cc1ccc(O)cc1)C(=O)O [ChMAP-28] (H-GRFKRFRKKLKRLWHKVGPFVGPILHY-OH) | 0.063 µM | 0.063 µM | 0.063 µM | 0.063 µM | – | – | – | –
O=C(N[C@H](CO)[C@H](O)c1ccc([N+](=O)[O-])cc1)C(Cl)Cl [Chloramphenicol] | – | – | – | – | 8 µM (≈ 2.59 µg/mL) | 16 µM (≈ 5.17 µg/mL) | 16 µM (≈ 5.17 µg/mL) | 8 µM (≈ 2.59 µg/mL)
O=C(O)c1cn(C2CC2)c2cc(N3CCNCC3)c(F)cc2c1=O [Ciprofloxacin] | – | – | – | – | – | 128 µM (≈ 42.4 µg/mL) | 128 µM (≈ 42.4 µg/mL) | –
CNC(C)C1CCC(N)C(OC2C(N)CC(N)C(OC3OCC(C)(O)C(NC)C3O)C2O)O1 (stereo not shown) [Gentamicin] | – | – | – | – | 2 µM (≈ 0.955 µg/mL) | 2 µM (≈ 0.955 µg/mL) | 4 µM (≈ 1.91 µg/mL) | 2 µM (≈ 0.955 µg/mL)
CC[C@H](C)[C@H](NC(=O)[C@H](CCCCN)NC(=O)[C@H](CCC(=O)O)NC(=O)[C@H](CCCCN)NC(=O)[C@H](CO)NC(=O)[C@H](CCCCN)NC(=O)[C@H](CCCNC(=N)N)NC(=O)[C@H](Cc1ccccc1)NC(=O)[C@H](Cc1ccccc1)NC(=O)[C@H](CC(=O)O)NC(=O)CNC(=O)[C@H](CC(C)C)NC(=O)[C@@H](N)CC(C)C)C(=O)NCC(=O)N[C@@H](CCCCN)C(=O)N[C@@H](CCC(=O)O)C(=O)N[C@@H](Cc1ccccc1)C(=O)N[C@@H](CCCCN)C(=O)N[C@@H](CCCNC(=N)N)C(=O)N[C@H](C(=O)N[C@H](C(=O)N[C@@H](CCC(N)=O)C(=O)N[C@@H](CCCNC(=N)N)C(=O)N[C@H](C(=O)N[C@@H](CCCCN)C(=O)N[C@@H](CC(=O)O)C(=O)N[C@@H](Cc1ccccc1)C(=O)N[C@@H](CC(C)C)C(=O)N[C@@H](CCCNC(=N)N)C(=O)N[C@@H](CC(N)=O)C(=O)N[C@@H](CC(C)C)C(=O)N[C@H](C(=O)N1CCC[C@H]1C(=O)N[C@@H](CCCNC(=N)N)C(=O)N[C@H](C(=O)N[C@@H](CCC(=O)O)C(=O)N[C@@H](CO)C(=O)O)[C@@H](C)O)C(C)C)[C@@H](C)CC)C(C)C)[C@@H](C)CC [LL-37] | 2 µM | 4 µM | 2 µM | 1 µM | – | – | – | –
CC(C)C[C@H](NC(=O)[C@H](CCCNC(=N)N)NC(=O)[C@@H]1CCCN1C(=O)[C@@H]1CCCN1C(=O)[C@H](Cc1ccccc1)NC(=O)[C@H](Cc1ccccc1)NC(=O)[C@@H]1CCCN1C(=O)[C@@H]1CCCN1C(=O)[C@@H]1CCCN1C(=O)[C@H](CCCNC(=N)N)NC(=O)[C@@H]1CCCN1C(=O)[C@H](CCCNC(=N)N)NC(=O)[C@@H]1CCCN1C(=O)[C@H](CC(C)C)NC(=O)[C@H](Cc1ccc(O)cc1)NC(=O)[C@@H]1CCCN1C(=O)[C@@H]1CCCN1C(=O)[C@H](CCCNC(=N)N)NC(=O)[C@@H]1CCCN1C(=O)[C@H](CCCNC(=N)N)NC(=O)[C@H](CCCNC(=N)N)NC(=O)[C@@H](N)CCCNC(=N)N)C(=O)O [PR-39_1-22] (H-RRRPRPPYLPRPRPPPFFPPRL-OH) | >32 µM | 2 µM | >32 µM | 16 µM | – | – | – | –
CC(C)C[C@H](NC(=O)[C@H](CCCNC(=N)N)NC(=O)CNC(=O)CNC(=O)[C@@H](N)CCCNC(=N)N)C(=O)N[C@H]1CSSC[C@@H](C(=O)N[C@H](C(=O)NCC(=O)N[C@@H](CCCNC(=N)N)C(=O)O)C(C)C)NC(=O)[C@H](C(C)C)NC(=O)[C@@H]2CSSC[C@H](NC(=O)[C@H](Cc3ccc(O)cc3)NC1=O)C(=O)N[C@@H](CCCNC(=N)N)C(=O)N[C@@H](CCCNC(=N)N)C(=O)N[C@@H](CCCNC(=N)N)C(=O)N[C@@H](Cc1ccccc1)C(=O)N2 [Protegrin-1] (H-RGGRLCYCRRRFCVCVGR-OH; disulfide 6-15, 8-13; N-terminus and C-terminus assumed) | 0.25 µM | 0.25 µM | 0.25 µM | 0.25 µM | – | – | – | –
CO[C@H]1/C=C/O[C@@]2(C)Oc3c(C)c(O)c4c(O)c(c(/C=N/N5CCN(C)CC5)c(O)c4c3C2=O)NC(=O)/C(C)=C\C=C\[C@H](C)[C@H](O)[C@@H](C)[C@@H](O)[C@@H](C)[C@H](OC(C)=O)[C@@H]1C [Rifampicin] | – | – | – | – | 64 µM (≈ 52.7 µg/mL) | 128 µM (≈ 105 µg/mL) | 64 µM (≈ 52.7 µg/mL) | 64 µM (≈ 52.7 µg/mL)
CC(C)C[C@H](NC(=O)[C@H](CCCNC(=N)N)NC(=O)[C@@H](N)CCCNC(=N)N)C(=O)N[C@@H](CCCNC(=N)N)C(=O)N1CCC[C@H]1C(=O)N[C@@H](CCCNC(=N)N)C(=O)N[C@@H](CCCNC(=N)N)C(=O)N1CCC[C@H]1C(=O)N[C@@H](CCCNC(=N)N)C(=O)N[C@@H](CC(C)C)C(=O)N1CCC[C@H]1C(=O)N[C@@H](CCCNC(=N)N)C(=O)N1CCC[C@H]1C(=O)N[C@@H](CCCNC(=N)N)C(=O)N1CCC[C@H]1C(=O)N[C@@H](CCCNC(=N)N)C(=O)N1CCC[C@H]1C(=O)N[C@@H](CCCNC(=N)N)C(=O)N1CCC[C@H]1C(=O)N[C@@H](CCCNC(=N)N)C(=O)N1CCC[C@H]1C(=O)N[C@@H](CCCNC(=N)N)C(=O)O [mini-ChBac7.5Nα] (H-RRLRPRRPRLPRPRPRPRPRPR-OH) | >32 µM | 8 µM | >32 µM | >32 µM | – | – | – | –
